Test results published in patent publication US9302993B2, “8-hydroxy quinoline derivatives” (PRANA BIOTECHNOLOGY LIMITED, priority 2002, dated 2016).
“And” between values parts separate entries of the source, which are not always exact repeats. Equal entries are not always repeated. Where two headings read alike, the source gives them in different places.

Legend:
Neuronal cortical cells = assay: Assay for test compound cytoxicity, MTS (Assay 3(d)); assay type: cell-based, mouse
[1] = test system: Neuronal cortical cells treated with Aβ1-42; assay: Assay for Aβ neurotoxicity and Aβ neuroprotection (Assay 3(c)); assay type: cell-based, mouse; conditions: 20 uM Aβ1-42, 4 days, MTS
Method: Media was then replaced with Neurobasal media (Invitrogen Life Technologies) and B27 supplements (Invitrogen Life Technologies). Cultures were maintained at 37° C. in 5% CO2. Prior to experimentation, the culture medium was replaced with Neurobasal media and B27 minus antioxidants (Invitrogen Life Technologies).
(c) Assay for Aβ Neurotoxicity and Aβ Neuroprotection
Neuronal cortical cells were cultured for five days as per Assay 2. On day six the neurobasal (NB) media (Invitrogen Life Technologies) and B27 supplement (Invitrogen Life Technologies) were replaced with NB media and B27 supplement (no antioxidants). On day six, test compounds were individually added to the neuronal cell cultures:
Aβ was initially dissolved in 20 mM NaOH to a concentration of 1 mM and sonicated for 5 minutes. The peptide was then diluted in H2O and 10×PBS to a final concentration of 200 uM Aβ in 1×PBS. The peptide was again sonicated for 5 minutes and then spun at 14000 rpm for 5 min and transferred to a fresh tube.
The test compounds were dissolved in 100% DMSO to a concentration of 2.5 mM (10 mM if excess compound was weighed out per vial—then diluted to 2.5 mM). […] Test compounds were not added directly to cells, instead they were added to a 48 well ‘Drug Plate’ as comprised below:
The Drug Plate was incubated at 37° C. for 15 mins. 200 ul of each well was added in triplicate to the corresponding cell plate. The cell plate was incubated at 37 C, for 4 days.
On the 4th day after treating the cells the assay is completed by adding MTS to the cells.

[2] = molecular target: T1, hydrogen peroxide generation by Aβ in the presence of copper (Homo sapiens, UniProt P05067); assay: Fluorometric H2O2 assay (Assay 1); assay type: biochemical; conditions: DCF/HRP, 37 C 60 min, several values in one cell = repeat determinations
T1 construct: The reaction solutions contained Aβ 1-42 at concentrations in the range of 50 nM to 1 μM
T1 sequence (P05067 672-713 limits assumed): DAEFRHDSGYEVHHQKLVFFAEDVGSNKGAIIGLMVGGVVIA
Summary of the method: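 Aβ1-42 (50 nM–1 μM) with Cu-glycine (2 Cu-Gly : 1 Aβ) and a reductant (dopamine 5 μM or ascorbic acid) was incubated 60 min at 37 °C in PBS pH 7.4 with test compound. H2O2 was detected with 100 μM deacetylated DCF and 0.1 μM HRP by fluorescence against H2O2 standards.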

[3] = test system: Aβ in extract of tissue from post mortem human AD brain; assay: Human brain amyloid solubilisation assay (Assay 9, BAS); assay type: biochemical
Method: Assay 9. Human Brain Amyloid Solubilisation Assay
This assay was performed in order to assess the ability of a test compound to mobilise Aβ from the insoluble to the soluble phase of an extract of tissue from post mortem human AD brain.
Up to 0.5 g of plaque-bearing cortex without meninges was homogenized using a DIAX 900 homogenizer (Heudolph and Co, Kelheim, Germany) or other suitable device for three 30-second periods at full speed in 2 ml of ice-cold phosphate-buffered saline, pH 7.4. To obtain the phosphate-buffered saline-extractable fraction, the homogenate was centrifuged at 100,000×g for 30 min and the supernatant removed. Alternatively, the tissue was freeze dried then pulverised to form a powder which was then weighed out into aliquots for extraction as above. Supernatant, either freeze-dried and resuspended or in unconcentrated form, was dissolved in 200 μl of Tris-Tricine sodium dodecyl sulfate (SDS) sample buffer pH 8.3 containing 8% SDS, 10% 2-mercaptoethanol. Aliquots (10 μl) were then boiled for 10 minutes before SDS-polyacrylamide gel electrophoresis. The insoluble fraction of the cortical samples was obtained by resuspending the initial pelleted sample in 1 ml of phosphate-buffered saline. A 50-μl aliquot of this suspension was then boiled in […] of sample buffer as above.
Tris-Tricine polyacrylamide gel electrophoresis was performed by loading appropriately diluted samples on to 10% to 20% gradient gels (Novex, San Diego, Calif.) followed by transfer on to 0.2-μm nitrocellulose membrane (Bio-Rad, Hercules, Calif.). Aβ was detected by using monoclonal antibody W02, which detects residues 5 through 8, […] (or another suitable antibody) in conjunction with horseradish peroxidase-conjugated rabbit anti-mouse IgG (Dako, Denmark), and visualized by using enhanced chemiluminescence (eg ECL; Amersham Life Science, Buckinghamshire, UK). Each gel included three lanes containing 0.5, 1, and 2 ng of synthetic Aβ40 (Keck Laboratory, Yale University, New Haven, Conn.) as reference standards.
Blot films were scanned by using a suitable imaging system such as the UVP gel documentation system, and densitometry performed using suitable software, eg UVP Labworks. The dynamic range of the film/scanner was determined by using a step tablet (No. 911ST600, Kodak, Rochester N.Y.), a calibrated film exposed by the manufacturer to provided steps of known increasing intensity. The quantifiable range of signal intensity for densitometric analysis of the mono- and dimeric Aβ bands was based on the comparison with a curve obtained by scanning and densitometry of the step tablet.
All samples were analysed at least twice, and gel loadings and dilutions were adjusted to fit within the quantifiable region of the standard curve. […] The insoluble Aβ being comprised of the pelletable fraction derived from the insoluble amyloid plaque from the above cortical samples and the soluble fraction comprising monomeric and/or oligomeric soluble Aβ.

[4] = BL6J×129sv, mouse, 4 days, 1 uM
[5] = BL6J×129sv, mouse, 4 days, 10 uM
[6] = Aβ 1-42 with Cu-Gly, read-out: Peroxide IC50
[7] = solubilising plaques relative to PBS
[8] = 10 uM test compound, repeated lines = repeat determinations, in %

| Compound | Test Compound Cytoxicity 0.1 um (Neuronal cortical cells; BL6J×129sv, mouse, 4 days) [%] | Test Compound Cytoxicity 1 uM (Neuronal cortical cells; [4]) | Test Compound Cytoxicity 10 uM (Neuronal cortical cells; [5]) | % inhibition Abeta toxicity [1] [%] | IC50 [2, 6] | BAS Score [3, 7] | Viable 10 uM (Neuronal cortical cells; [5]) | Cell viability (% viable cells, MTS) (Neuronal cortical cells; 1 uM, 4 days, in %) | Viable 10 uM (Neuronal cortical cells; [8]) | Cell viability (% viable cells, MTS) (Neuronal cortical cells; 10 uM, 4 days, in %) | Cell viability (% viable cells, MTS) (Neuronal cortical cells; 0.1 um, 4 days) [%] | IC50 ([2]; Peroxide IC50, Aβ 1-42 with Cu-Gly) [nM] | BAS Score [3] |
| --- | --- | --- | --- | --- | --- | --- | --- | --- | --- | --- | --- | --- | --- |
| Cc1ccccc1-c1cc(Cl)c2cccnc2c1O [compound 854] | 94 | 81 | 36 | 22 | < 780 nM | + |  |  |  |  |  |  |  |
| Oc1ccccc1-c1cc(Cl)c2cccnc2c1O [compound 947] | 100 | 94 | 51 | 3 |  | + | 70.4 |  |  |  |  |  |  |
| Nc1ccc2cccc(O)c2n1 [compound 54] |  |  |  | 100 |  |  |  | 97 | 99.57 | 61 | 89 | 1000 | + |
| NCc1ccc2cccc(O)c2n1 [compound 968] | 103 | 87 | 82 | 6 |  | ++ | 97.12 |  |  |  |  |  |  |
| Cc1cnc(NC(=O)c2ccc3cccc(O)c3n2)s1 [compound 953] | 101 | 85 | 53 | 25 | < 4240 nM and 620 nM | + | 67.8 |  |  |  |  |  |  |
| Oc1c(-c2ccccc2C(F)(F)F)cc(Cl)c2cccnc12 [compound 864] | 100 | 88 | 37 | 13 |  | + | 93.12 |  |  |  |  |  |  |
| O/N=C/c1ccc2cccc(O)c2n1 [compound 969, 8-Hydroxy-quinoline-2-carboxaldehyde Oxime] | 91 | 92 | 90 | 2 |  | + | 94.55 |  |  |  |  |  |  |
| Oc1c(I)cc(Cl)c2cccnc12 [compound 1, clioquinol, reference compound] | 78 | 90 | 77 | 16 | 400 to 500 nM | ++ |  |  |  |  |  |  |  |
| COc1cccc(-c2cc(Cl)c3cccnc3c2O)c1 [compound 810] | 100 | 85 | 57 | 11 | > 10000 nM | + |  |  |  |  |  |  |  |
| Oc1cccc2ccc(-c3ccccn3)nc12 [compound 1006] |  | 92 | 52 | 7 |  | ++ |  |  |  |  |  |  |  |
| Nc1ccccc1NC(=O)c1cc(O)c2cccc(O)c2n1 [compound 986] | 96 | 85 | 60 | 7 |  | + | 81.73 |  |  |  |  |  |  |
| CN(CCc1ccccn1)Cc1ccc2cccc(O)c2n1 [compound 990] | 95 | 88 | 57 | 18 |  | + | 57.45 |  |  |  |  |  |  |
| Oc1c(Br)cc(-c2cc(F)cc(F)c2)c2cccnc12 [compound 853] | 93 | 79 | 39 | 31 |  | + | 94.79 |  |  |  |  |  |  |
| CN(c1ccc2cccc(O)c2n1)c1ccc2cccc(O)c2n1 [compound 56] | 108 | 74 | 31 | 17 | 700 nM | + |  |  |  |  |  |  |  |
| Oc1ccc(/C=C/c2ccc3cccc(O)c3n2)cc1 [compound 89] | 87 | 92 | 101 | −31 | 3000 nM | + | 74.28 |  |  |  |  |  |  |
| CCCCN(c1ccc2cccc(O)c2n1)c1ccc2cccc(O)c2n1 [compound 53] | 96 | 95 | 100 | −75 | 300 nM | + | 95.8 |  |  |  |  |  |  |
| O=C(Nc1nccs1)c1ccc2cccc(O)c2n1 [compound 952] | 98 | 91 | 53 | 13 | < 810 nM | + | 99.52 |  |  |  |  |  |  |
| Oc1c(Cl)cc(Cl)c2cccnc12 [compound 45] | 100 | 92 | 67 | 28 | 700 nM | ++ |  |  |  |  |  |  |  |
| Cc1cc(C)c2cccnc2c1O [compound 59] | 89 | 97 | 55 | 22 |  | + |  |  |  |  |  |  |  |
| O=C(CNC(=O)c1cc(O)c2cccc(O)c2n1)NCCc1c[nH]cn1 [compound 987] | 92 | 90 | 87 | 5 |  | + | 89.03 |  |  |  |  |  |  |
| Oc1c(Br)cc(-c2ccccc2)c2cccnc12 [compound 806] | 99 | 78 | 38 | 36 | < 1200 nM | ++ |  |  |  |  |  |  |  |
| O=C(NCCc1c[nH]cn1)c1ccc2cccc(O)c2n1 [compound 948] | 100 | 79 | 85 | 9 | 190 nM | + | 106.66 |  |  |  |  |  |  |
| Oc1cccc2cccnc12 [compound 42] |  |  |  | 14 |  |  |  | 87 | 97.66 | 79 | 90 |  | + |
